Test results published in patent US9561228B2 (Celgene Avilomics Research, Inc., priority 2013, dated 2017).

What was measured:
MEK1 activated ERK1 = biological target: T1, MEK1 activated ERK1 (Homo sapiens, UniProt P27361); test: Omnia continuous-read kinase assay for potency against MEK1 activated ERK1; format: biochemical; conditions: MEK1 activated ERK1, ATP at KM; read-out: ERK1 Omnia WT ATP KM IC50
T1 construct: purchased Millipore (Billerica, Mass.) 14-439-K
Method in brief: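 Apparent IC50 came from initial reaction slopes (RFU vs time) plotted against log inhibitor with a variable-slope fit. Reactions were started with ERK1 (4 nM final) added to 50 μM ATP, roughly at its appKM, and 10 μM Sox-conjugated ST17 peptide in 20 mM Tris pH 7.5, 5 mM MgCl2. Fluorescence was monitored every 71 seconds.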

[1] = system: A375 cells (malignant melanoma); test: Inhibition of cancer cell proliferation, A375 (CellTiterGlo, 72 hours); format: cell-based; conditions: Homo sapiens, A-375
Method in brief: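 A375 melanoma cells, 3000/well, exposed 72 h at 37 °C to compound in 3-fold serial dilutions (solution added as 2× stock starting at 5,000 nM in serum-free DMEM). CellTiterGlo luminescence converted to cell number via standard curve; % inhibition vs untreated control, GI50 from curve fit.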

[2] = system: ERK1/2 phosphorylation of p90RSK in HCT116 cells; test: Detection of total and phospho-RSK by MSD ELISA (HCT116); format: cell-based; conditions: Homo sapiens, HCT-116, read-out: ERK1/ERK2 PRSK HCT116 EC50
Method in brief: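 HCT116 cells treated with compound in RPMI/10% FBS for 2 h at 37° C, then lysed. Phospho-RSK (Ser380) and total RSK in lysates measured by MSD sandwich electrochemiluminescence ELISA as a readout of ERK1/2 activity.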

T1 sequence (P27361 whole entry): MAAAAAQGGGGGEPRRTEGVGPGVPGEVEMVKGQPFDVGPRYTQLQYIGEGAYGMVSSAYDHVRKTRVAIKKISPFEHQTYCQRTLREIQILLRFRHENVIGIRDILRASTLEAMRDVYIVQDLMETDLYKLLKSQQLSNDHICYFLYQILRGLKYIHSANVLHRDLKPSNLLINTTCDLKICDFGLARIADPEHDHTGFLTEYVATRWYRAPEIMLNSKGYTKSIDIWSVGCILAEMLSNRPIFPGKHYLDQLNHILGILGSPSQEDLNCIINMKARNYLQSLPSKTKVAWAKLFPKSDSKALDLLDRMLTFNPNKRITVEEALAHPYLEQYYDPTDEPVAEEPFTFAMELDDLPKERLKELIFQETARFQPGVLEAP

Row | SMILES | IC50 (MEK1 activated ERK1) [nM] | GI50 [1] [nM] | EC50 [2] [nM]
1 | C=CC(=O)Nc1ccccc1Nc1nc(N[C@H]2CCN(C(C)=O)C2)ncc1C(F)(F)F [Compound I-56, (S)—N-(2-((2-((1-Acetylpyrrolidin-3-yl)amino)-5-(trifluoromethyl)pyrimidin-4-yl)amino)phenyl)acrylamide] | 101 to 500 | 101 to 500 | –
2 | C=CC(=O)Nc1ccccc1Nc1nc(N[C@H]2CCN(C(=O)CO)C2)ncc1C(F)(F)F [Compound I-57, (S)—N-(2-((2-((1-(2-Hydroxyacetyl)pyrrolidin-3-yl)amino)-5-(trifluoromethyl)pyrimidin-4-yl)amino)phenyl)acrylamide] | 101 to 500 | 101 to 500 | –
3 | C=CC(=O)Nc1ccccc1Nc1nc(N[C@H]2CCN(S(C)(=O)=O)C2)ncc1C(F)(F)F [Compound I-58, (S)—N-(2-((2-((1-(Methylsulfonyl)pyrrolidin-3-yl)amino)-5-(trifluoromethyl)pyrimidin-4-yl)amino)phenyl)acrylamide] | 101 to 500 | 101 to 500 | –
4 | C=CC(=O)Nc1ccccc1Nc1nc(N[C@H]2CCN(C(=O)OC)C2)ncc1C(F)(F)F [Compound I-59, (S)-methyl 3-((4-((2-Acrylamidophenyl)amino)-5-(trifluoromethyl)pyrimidin-2-yl)amino)pyrrolidine-1-carboxylate] | 501 to 999 | 101 to 500 | –
5 | C=CC(=O)Nc1ccccc1Nc1nc(N[C@@H]2CCN(C(C)=O)C2)ncc1C(F)(F)F [Compound I-60, (R)—N-(2-((2-((1-Acetylpyrrolidin-3-yl)amino)-5-(trifluoromethyl)pyrimidin-4-yl)amino)phenyl)acrylamide] | 501 to 999 | > 1000 | –
6 | C=CC(=O)Nc1cc(OC)ccc1Nc1nc(N[C@H]2CCCN(C(=O)CO)C2)ncc1C(F)(F)F [Compound I-64, (S)—N-(2-((2-((1-(2-Hydroxyacetyl)piperidin-3-yl)amino)-5-(trifluoromethyl)pyrimidin-4-yl)amino)-5-methoxyphenyl)acrylamide] | – | < 100 | –
7 | C=CC(=O)Nc1ccccc1Nc1nc(Nc2cc(C(N)=O)ccc2C)ncc1C(F)(F)F [Compound I-68, 3-(4-(2-Acrylamidophenylamino)-5-(trifluoromethyl)pyrimidin-2-ylamino)-4-methylbenzamide] | – | < 100 | –
8 | C=CC(=O)Nc1cc(OC)ccc1Nc1nc(Nc2cc(OC)nc(N3CCN(CC)CC3)c2)ncc1C(F)(F)F [Compound I-88, N-(2-((2-((2-(4-Ethylpiperazin-1-yl)-6-methoxypyridin-4-yl)amino)-5-(trifluoromethyl)pyrimidin-4-yl)amino)-5-methoxyphenyl)acrylamide] | – | < 100 | –
9 | C=CC(=O)Nc1cc(C)ccc1Nc1nc(Nc2cc(OC)nc(N3CCN(CC)CC3)c2)ncc1C(F)(F)F [Compound I-89, N-(2-((2-((2-(4-Ethylpiperazin-1-yl)-6-methoxypyridin-4-yl)amino)-5-(trifluoromethyl)pyrimidin-4-yl)amino)-5-methylphenyl)acrylamide] | 101 to 500 | < 100 | –
10 | C=CC(=O)Nc1cc(C)ccc1Nc1nc(Nc2cc(OC)ncc2C)ncc1C(F)(F)F [Compound I-90, N-(2-((2-((2-Methoxy-5-methylpyridin-4-yl)amino)-5-(trifluoromethyl)pyrimidin-4-yl)amino)-5-methylphenyl)acrylamide] | – | 101 to 500 | 101 to 500
11 | C=CC(=O)Nc1cc(OC)ccc1Nc1nc(Nc2cc(OC)nc(N3CCN(C(C)=O)CC3)c2)ncc1C(F)(F)F [Compound I-91, N-(2-((2-((2-(4-Acetylpiperazin-1-yl)-6-methoxypyridin-4-yl)amino)-5-(trifluoromethyl)pyrimidin-4-yl)amino)-5-methoxyphenyl)acrylamide] | – | < 100 | < 100
12 | C=CC(=O)Nc1cc(C)ccc1Nc1nc(Nc2cc(OC)nc(N3CCOCC3)c2)ncc1C(F)(F)F [Compound I-94, N-(2-((2-((2-Methoxy-6-morpholinopyridin-4-yl)amino)-5-(trifluoromethyl)pyrimidin-4-yl)amino)-5-methylphenyl)acrylamide] | 101 to 500 | < 100 | –
13 | C=CC(=O)Nc1ccccc1Nc1nc(Nc2cc(OC)nc(OC)c2)ncc1C(F)(F)F [Compound I-95, N-(2-((2-((2,6-Dimethoxypyridin-4-yl)amino)-5-(trifluoromethyl)pyrimidin-4-yl)amino)phenyl)acrylamide] | – | < 100 | –
14 | C=CC(=O)Nc1ccccc1Nc1nc(N[C@H]2CCCN(C(C)=O)C2)ncc1Cl [Compound I-115, (S)—N-(2-((2-((1-acetylpiperidin-3-yl)amino)-5-chloropyrimidin-4-yl)amino)phenyl)acrylamide] | < 100 | < 100 | –
15 | C=CC(=O)Nc1cc(C)ccc1Nc1nc(N[C@H]2CCCN(C(=O)CO)C2)ncc1Cl [Compound I-140, (S)—N-(2-((5-chloro-2-((1-(2-hydroxyacetyl)piperidin-3-yl)amino)pyrimidin-4-yl)amino)-5-methylphenyl)acrylamide] | – | < 100 | –
16 | C=CC(=O)Nc1cc(C)ccc1Nc1nc(Nc2cc(C(N)=O)ccn2)ncc1Cl [Compound I-238, 2-((4-((2-acrylamido-4-methylphenyl)amino)-5-chloropyrimidin-2-yl)amino)isonicotinamide] | 101 to 500 | 101 to 500 | –
17 | C=CC(=O)Nc1cc(OC)ccc1Nc1nc(Nc2cc(OC)ncc2C)ncc1Cl [Compound I-242, N-(2-((5-chloro-2-((2-methoxy-5-methylpyridin-4-yl)amino)pyrimidin-4-yl)amino)-5-methoxyphenyl)acrylamide] | – | < 100 | > 1000
18 | C=CC(=O)Nc1cc(OC)ccc1Nc1nc(Nc2cc(Cl)nc(OC)c2)ncc1Cl [Compound I-245, N-(2-((5-chloro-2-((2-chloro-6-methoxypyridin-4-yl)amino)pyrimidin-4-yl)amino)-5-methoxyphenyl)acrylamide] | 101 to 500 | 101 to 500 | –
19 | C=CC(=O)Nc1ccccc1Nc1nc(Nc2cc(Cl)nc(OC)c2)ncc1Cl [Compound I-246, N-(2-((5-chloro-2-((2-chloro-6-methoxypyridin-4-yl)amino)pyrimidin-4-yl)amino)phenyl)acrylamide] | 101 to 500 | < 100 | –
20 | C=CC(=O)Nc1ccccc1Nc1nc(Nc2cc(OC)nc(N3CCCC3)c2)ncc1C(F)(F)F [Compound I-281, N-(2-((2-((2-Methoxy-6-(pyrrolidin-1-yl)pyridin-4-yl)amino)-5-(trifluoromethyl)pyrimidin-4-yl)amino)phenyl)acrylamide] | – | < 100 | < 100
21 | C=CC(=O)Nc1ccccc1Nc1nc(Nc2cc(OC)nc(OCCOC)c2)ncc1C(F)(F)F [Compound I-283, N-(2-((2-((2-Methoxy-6-(2-methoxyethoxyl)pyridin-4-yl)amino)-5-(trifluoromethyl)pyrimidin-4-yl)amino)phenyl)acrylamide] | – | < 100 | < 100
22 | C=CC(=O)Nc1cc(OC)ccc1Nc1nc(Nc2cc(OC)ncc2C)ncc1C(F)(F)F [Compound I-284, N-(5-Methoxy-2-((2-((2-methoxy-5-methylpyridin-4-yl)amino)-5-(trifluoromethyl)pyrimidin-4-yl)amino)phenyl)acrylamide] | – | < 100 | < 100
23 | C=CC(=O)Nc1ccccc1Nc1nc(Nc2cc(F)ccc2C)ncc1C(F)(F)F [Compound I-285, N-(2-((2-((5-Fluoro-2-methylphenyl)amino)-5-(trifluoromethyl)pyrimidin-4-yl)amino)phenyl)acrylamide] | 501 to 999 | – | > 1000
24 | C=CC(=O)Nc1ccccc1Nc1nc(Nc2cc(NCCOC)nc(OC)c2)ncc1C(F)(F)F [Compound I-286, N-(2-((2-((2-Methoxy-6-((2-methoxyethyl)amino)pyridin-4-yl)amino)-5-(trifluoromethyl)pyrimidin-4-yl)amino)phenyl)acrylamide] | – | < 100 | < 100
25 | C=CC(=O)Nc1ccccc1Nc1nc(Nc2ccnc(F)c2)ncc1C(F)(F)F [Compound I-287, N-(2-((2-((2-Fluoropyridin-4-yl)amino)-5-(trifluoromethyl)pyrimidin-4-yl)amino)phenyl)acrylamide] | 101 to 500 | – | 101 to 500
26 | C=CC(=O)Nc1cc(C)ccc1Nc1nc(Nc2ccnc(F)c2)ncc1C(F)(F)F [Compound I-288, N-(2-((2-((2-Fluoropyridin-4-yl)amino)-5-(trifluoromethyl)pyrimidin-4-yl)amino)-5-methylphenyl)acrylamide] | 501 to 999 | – | 101 to 500
27 | C=CC(=O)Nc1cc(C)ccc1Nc1nc(Nc2cc(C)nc(OC)c2)ncc1C(F)(F)F [Compound I-295, N-(2-((2-((2-methoxy-6-methylpyridin-4-yl)amino)-5-(trifluoromethyl)pyrimidin-4-yl)amino)-5-methylphenyl)acrylamide] | 101 to 500 | – | < 100
28 | C=CC(=O)Nc1cc(C)ccc1Nc1nc(Nc2cc(OC)ccc2C)ncc1C(F)(F)F [Compound I-341, N-(2-((2-((5-methoxy-2-methylphenyl)amino)-5-(trifluoromethyl)pyrimidin-4-yl)amino)-5-methylphenyl)acrylamide] | 501 to 999 | – | > 1000
